# Measurements published in patent publication US20070104780A1, “Formulation comprising a drug of low water solubility and method of use thereof” (priority 2005, published 2007).
# Key:
# Type in all cases: physicochemical
# [1] = Aqueous solubility of the drugs
# From the text: It will be recognized that aqueous solubility of many drugs is pH dependent; in the case of such drugs the solubility of interest herein is at a physiologically relevant pH, for example a pH of about 1 to about 8.
# [2] = Solubility of ABT-102 in various carriers (Example 14); settings: thermodynamic from solid, room temperature, read-out: Solubility (S)
# Protocol: An accurately weighed quantity of about 1 g of each excipient was weighed into three glass vials. Semisolid excipients were warmed in a water bath at around 50-60° C. until completely melted before weighing. An accurately weighed quantity of ABT-102 of about 25 mg, 50 mg and 100 mg was weighed into each of the three vials containing the same excipients. The vials were closed tightly and mixed for around 30 seconds by vortexing and then sonicating in a warm water bath. The vials were visually observed for dissolution after 5-6 hours. Solubility is reported in Table 11 below based on volume of carrier providing a clear solution and volume of carrier where solid was present. All solubility values were determined at room temperature.
# [3] = Screening of carriers for solubility of ABT-869 (Example 1); settings: thermodynamic from solid, room temperature, read-out: Solubility (S)
# Protocol: Approximately 20 mg of ABT-869 was weighed and added to a 0.3 ml vial. A test carrier (100 μl) was then added by pipette to the vial. The vial was three times alternately vortexed for about 30 seconds and sonicated for about 1 minute to ensure adequate wetting and dispersion of the ABT-869. The vial was wrapped in aluminum foil, placed in a Labquake™ rotator and rotated for a minimum of 24 hours. […] If solid was still present, carrier was added until all solid had dissolved and the resulting solution was clear. Approximate solubility is reported in Table 1 below as a range based on volume of carrier providing a clear solution and volume of carrier where solid was present. All solubility values were determined at room temperature.
# [4] = Solubility of ABT-869 in carriers comprising Phosal 53 MCT (Example 2, HPLC); settings: 25° C.
# Protocol: Solubility of ABT-869 was measured in various carriers comprising Phosal 53 MCT™. Approximately 100-400 mg of ABT-869 was weighed and added to a 4 ml glass vial, to which 2 ml of a test carrier was added. The vial was then vortexed and sonicated for 10 minutes. The vials were wrapped with aluminum foil, placed in a water bath at 25° C. and agitated for 2 days. The contents of the vials were then filtered and the filtrate diluted 25× with mobile phase for HPLC analysis.
# [5] = Solubility of isotretinoin in Phosal 53 MCT and typical solvents (Example 11)
# [6] = Solubility of paricalcitol in various carriers (Example 13)
smiles,measurement,setting,value
CC(C)(C)c1ccc2c(c1)CC[C@H]2NC(=O)Nc1cccc2[nH]ncc12 [ABT-102],solubility,"[1]; water, pH 1.1, simulated gastric fluid, read-out: solubility in water",~0.102 µg/mL
same,solubility,"[1]; water, pH 6.8, aqueous buffer, read-out: solubility in water",~0.0573 µg/mL
same,solubility,"[2]; oil or lipid, carrier Gelucire 44/14",25 to 50 mg/mL
same,solubility,"[2]; oil or lipid, carrier Phosal 50 PG",50 to 100 mg/mL
same,solubility,"[2]; oil or lipid, carrier Phosal 53 MCT",50 to 100 mg/mL
same,solubility,"[2]; oil or lipid, carrier Vit.E TPGS",< 200 mg/mL
same,solubility,"[2]; organic solvent or mixture, carrier PEG 400",71 mg/mL
same,solubility,"[2]; organic solvent or mixture, carrier VP Dimer (VPD)",160 mg/mL
"Cc1ccc(F)c(NC(=O)Nc2ccc(-c3cccc4[nH]nc(N)c34)cc2)c1 [ABT-869, N-[4-(3-amino-1H-indazol-4-yl)phenyl]-N′-(2-fluoro-5-methylphenyl)urea]",solubility,"[1]; pH 1, simulated gastric fluid",~1.7 µg/mL
same,solubility,"[1]; pH 5, aqueous buffer",~0.027 µg/mL
same,solubility,"[3]; oil or lipid, carrier 10% ethanol, 90% Phosal 50 PG",50 to 67 mg/mL
same,solubility,"[3]; oil or lipid, carrier 10% ethanol, 90% Phosal 53 MCT",67 to 100 mg/mL
same,solubility,"[3]; oil or lipid, carrier 100% Captex 355 EP",< 50 mg/mL
same,solubility,"[3]; organic solvent or mixture, carrier 10% ethanol, 20% polysorbate 80, 70% PEG 400",> 200 mg/mL
same,solubility,"[3]; organic solvent or mixture, carrier 10% ethanol, 30% Phosal 50 PG, 60% PEG 400",> 200 mg/mL
same,solubility,"[3]; organic solvent or mixture, carrier 10% ethanol, 90% PEG 400",> 200 mg/mL
same,solubility,"[3]; organic solvent or mixture, carrier 100% PEG 400",> 200 mg/mL
same,solubility,"[4]; carrier 5% ethanol, 95% Phosal 53 MCT",115 mg/g
same,solubility,"[4]; carrier 10% PEG 400, 0.5% Tween 80, 4.5% ethanol, 85% Phosal 53 MCT",>122 mg/g
same,solubility,"[4]; carrier 10% PEG 400, 5% ethanol, 85% Phosal 53 MCT",>123 mg/g
same,solubility,"[4]; carrier 10% PEG 400, 90% Phosal 53 MCT",139 mg/g
same,solubility,"[4]; carrier 10% ethanol, 90% Phosal 53 MCT",97 mg/g
same,solubility,"[4]; carrier 20% PEG 400, 80% Phosal 53 MCT",166 mg/g
same,solubility,"[4]; carrier 30% PEG 400, 70% Phosal 53 MCT",185 mg/g
same,solubility,"[4]; carrier 40% PEG 400, 60% Phosal 53 MCT",199 mg/g
same,solubility,"[4]; carrier 50% PEG 400, 50% Phosal 53 MCT",221 mg/g
same,solubility,[4]; carrier 100% Phosal 53 MCT,95 mg/g
CC1=C(/C=C/C(C)=C/C=C/C(C)=C\C(=O)O)C(C)(C)CCC1 [Isotretinoin],solubility,[1],~5 µg/mL
same,solubility limit,[5]; in Phosal 53 MCT at 25° C.,72 to 78 mg/g
same,solubility,[5]; in caprylic/capric triglycerides,5.1 mg/g
same,solubility,[5]; in ethanol,16.7 mg/g
same,solubility,[5]; in oleic acid,19.1 mg/g
same,solubility,[5]; in soybean oil,2.4 mg/g
C[C@H](/C=C/[C@H](C)C(C)(C)O)[C@H]1CC[C@H]2/C(=C/C=C3C[C@@H](O)C[C@H](O)C3)CCC[C@]12C [paricalcitol],Solubility (mean of 2 tests),[6]; carrier 10% hydroxypropyl-β-cyclodextrin in PEG,734 µg/g
same,Solubility (mean of 2 tests),[6]; carrier Neobee M5 + 0.5% ethanol,194 µg/g
same,Solubility (mean of 2 tests),[6]; carrier PEG 400,"1,085 μg/g"
same,Solubility (mean of 2 tests),[6]; carrier Phosal 50 SA,752 µg/g
same,Solubility (mean of 2 tests),[6]; carrier Phosal 53 MCT,"1,459 μg/g"
same,Solubility (mean of 2 tests),[6]; carrier castor oil,344 µg/g
same,Solubility (mean of 2 tests),[6]; carrier glyceryl monooleate,"1,067 μg/g"
same,Solubility (mean of 2 tests),[6]; carrier medium chain monoglycerides (Capmul MCM),"5,057 μg/g"
same,Solubility (mean of 2 tests),[6]; carrier medium chain triglycerides (Neobee M5),165 µg/g
same,Solubility (mean of 2 tests),[6]; carrier oleic acid,819 µg/g
same,Solubility (mean of 2 tests),[6]; carrier polysorbate 80 (Tween 80),"1,353 μg/g"
same,Solubility (mean of 2 tests),[6]; carrier propylene glycol,"5,791 μg/g"
same,Solubility (mean of 2 tests),[6]; carrier triethyl citrate,453 µg/g
same,solubility,"[1]; pH 7.4, aqueous buffer",0.0115 µg/mL
